For assay [1], the target named is CAT (Homo sapiens, UniProt P04040). The method, then:
To confirm the reliability of the porcine-based TPA-positive tissue map described above for potential human trials, fresh resected tissue specimens from humans were tested for compatibility with TPA technology. Similar to the porcine TPA-map study, human tissue specimens were incubated with the TPA solution containing M1, and subsequently CAT-accelerated chromogenic M1 assembly was characterized.

Assay [2] deals with endogenous catalase (CAT) (Sus scrofa, UniProt O62839). Conditions: of 35 porcine tissue sites.
endogenous catalase (CAT), sequence (O62839 2-527 limits assumed): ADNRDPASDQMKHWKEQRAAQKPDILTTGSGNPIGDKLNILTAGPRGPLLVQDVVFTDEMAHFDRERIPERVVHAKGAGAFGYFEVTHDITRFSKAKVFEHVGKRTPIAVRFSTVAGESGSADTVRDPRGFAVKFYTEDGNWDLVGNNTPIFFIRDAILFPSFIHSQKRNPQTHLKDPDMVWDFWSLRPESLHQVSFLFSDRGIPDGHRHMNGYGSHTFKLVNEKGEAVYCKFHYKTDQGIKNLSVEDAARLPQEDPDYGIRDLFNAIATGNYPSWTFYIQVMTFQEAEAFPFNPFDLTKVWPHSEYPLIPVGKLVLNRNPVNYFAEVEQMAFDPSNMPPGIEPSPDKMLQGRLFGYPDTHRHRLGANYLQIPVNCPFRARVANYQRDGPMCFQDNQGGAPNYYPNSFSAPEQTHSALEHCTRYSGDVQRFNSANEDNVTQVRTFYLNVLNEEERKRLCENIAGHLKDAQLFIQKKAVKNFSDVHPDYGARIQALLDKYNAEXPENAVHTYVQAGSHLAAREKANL

The structures appear in SMILES notation.

CAT, sequence (P04040 2-527 limits assumed): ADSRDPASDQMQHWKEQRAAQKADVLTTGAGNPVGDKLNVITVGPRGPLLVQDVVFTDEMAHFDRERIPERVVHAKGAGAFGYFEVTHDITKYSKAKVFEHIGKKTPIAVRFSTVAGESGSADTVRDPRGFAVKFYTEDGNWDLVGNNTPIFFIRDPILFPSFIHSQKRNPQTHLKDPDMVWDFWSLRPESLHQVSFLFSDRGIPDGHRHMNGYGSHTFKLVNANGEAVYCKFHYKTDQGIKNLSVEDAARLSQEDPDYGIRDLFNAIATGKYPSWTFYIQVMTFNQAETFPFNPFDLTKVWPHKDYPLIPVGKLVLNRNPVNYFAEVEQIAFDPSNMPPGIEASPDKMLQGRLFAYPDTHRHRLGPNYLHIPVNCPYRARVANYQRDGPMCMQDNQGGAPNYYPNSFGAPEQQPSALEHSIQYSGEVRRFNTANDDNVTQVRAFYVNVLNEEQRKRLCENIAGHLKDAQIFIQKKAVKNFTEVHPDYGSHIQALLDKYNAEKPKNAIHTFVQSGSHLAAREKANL

For the compound `NCCc1ccc(O)c(O)c1` [Monomer M1, dopamine], the “time to 95% completion of M1 assembly formation” value in assay [1] (all human tissue types tested) lay within 4 to 23 min. Moreover, in assay [1] (cartilage, buccal, tongue, blood), the “adhesion of assemblies on human tissues” value is on record as “stably adhered M1 assemblies were observed”. Also, the “tissue sites with no obvious PDA signal increase” value in assay [2] amounted to 9 tissue sites. Also, in assay [2] (dopamine plus hydrogen peroxide), the “tissue sites with significantly increased PDA levels (P<0.05)” value amounted to 26 tissue sites.

The record behind these values is patent US20230101687A1, “SYNTHETIC TISSUE BARRIERS AND USES THEREOF” (Massachusetts Institute of Technology, priority 2019, published 2023).
